pIC50: −log10 of the molar value. “And” between values parts separate entries of the source, which are not always exact repeats. Equal values may be shown once. “Also recorded” adds a separate entry of the source. Read-outs that look alike come from different tables or passages of the source.
How the values were obtained:
CK1ε = molecular target: T1, CK1ε (Homo sapiens, UniProt P49674); test: DSF thermal shift; type: binding; details: 10 µM inhibitor; read-out: Tm shift
T1 construct: purchased Nanosyn (enzymatic panel); SGC in-house recombinant human kinases (DSF panel); Invitrogen (ALK1-6)
Procedure, shortened: (§1)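 Thermal melt, qPCR cycler; kinase 1–2 µM, compound 10 µM.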

PKD3 = molecular target: T2, PKD3 (Homo sapiens, UniProt O94806); test: DSF thermal shift; type: binding; details: 10 µM inhibitor; read-out: Tm shift
T2 construct: purchased Nanosyn (enzymatic panel); SGC in-house recombinant human kinases (DSF panel); Invitrogen (ALK1-6)
Procedure, shortened: as §1

p38β = molecular target: T3, p38β (Homo sapiens, UniProt Q15759); test: DSF thermal shift; type: binding; details: 10 µM inhibitor; read-out: Tm shift
T3 construct: purchased Nanosyn (enzymatic panel); SGC in-house recombinant human kinases (DSF panel); Invitrogen (ALK1-6)
Procedure, shortened: as §1

[1] = test system: Tg(fli1a:eGFP) zebrafish embryos; test: Intersomitic vessel (ISV) formation in zebrafish embryos; type: in vivo; details: treated from 12 hpf, scored at 48 hpf
Experimental: The zebrafish colony was maintained as described and embryos were raised at 28.5°C. The Tg(BRE:mRFP) transgenic line (also called BRE-mRFP) has been described previously and expresses mRFP in response to BMP signaling. […] Inhibitor stocks were diluted in DMSO and then further diluted in fish water to give the required inhibitor concentrations. To minimize the amount of inhibitors used, experiments were performed in 24-well plates with approximately 20 embryos per well in a volume of 1 mL. The chemical treatment was applied by immersing 8- to 16-cell stage Tg(BRE:mRFP) embryos (dorsalization experiment) or 12 hours old […]) embryos (ISV experiment) in the fish water supplemented with DMSO or the chemical inhibitors. For the ISV experiment, embryos were manually dechorionated after bud stage before treatment. Embryos were scored and photographed at 26 or 48 hours.

KDR = test system: KDR; set-up: method as in PMID 20020776; details: read-out: reported KDR IC50; cited from earlier work
ALK3 = molecular target: T4, ALK3 (Homo sapiens, UniProt P36894); test: DSF thermal shift; type: binding; details: 10 µM inhibitor; read-out: Tm shift
T4 construct: purchased Nanosyn (enzymatic panel); SGC in-house recombinant human kinases (DSF panel); Invitrogen (ALK1-6)
Procedure, shortened: as §1

SIK = test: Nanosyn kinase profiling; type: biochemical, human
Experimental: (§2) Percentage inhibition was determined for each kinase at both 0.1 µM and 1 µM inhibitor concentration (supplemental Table S2). […]. […]. When visualized on a kinase phylogenetic tree, these were primarily clustered within the receptor tyrosine kinases (TKs) as well as the calmodulin-dependent kinases (CAMKs) (Figure 2C).
(§3) Inhibitor selectivity profiling against 200 human kinases at 0.1 and 1 µM inhibitor concentration was performed by Nanosyn (www.nanosyn.com).

ActRIIA (ACVR2) = ActRIIA (ACVR2) (Homo sapiens, UniProt P27037); test: Kinase-Glo assay; type: biochemical; details: at the Km value of ATP, duplicate
Experimental: A kinase assay for ActRIIA (ACVR2) was performed using Kinase-Glo® (Promega) as per manufacturer’s instructions. […] Inhibitors were added at concentrations between 0 and 10 µM in kinase reaction buffer and tested in duplicate. At 15 min, 30 min, 1 hr, 2 hr, and 3 hr 20 µL aliquots of the reaction mixture was transferred to a 384-well plate and 20 µL of Kinase-Glo® was added and allowed to rest for 10 min to quench the reaction and produce light which was measured using a Spectramax L luminometer (Molecular Devices).

[2] = test system: BMP4 induced Smad1/5/8 phosphorylation in C2C12 cells; test: BMP4 induced Smad1/5/8 phosphorylation, Western blot; type: cell-based; details: for pIC50: Mus musculus
Experimental: (§4) C2C12 and HEK293 cells were grown in DMEM supplemented with 10% FCS (PAA) and seeded at a density of 1 x 10^5 cells per well in 6-well plates. The next day the cells were starved in DMEM containing 1% FCS for 5 hours. Inhibitors were added at the indicated concentrations for 30 minutes followed by 10 ng/mL BMP4 (Peprotech), 100 ng/mL BMP6 (Peprotech), 100 ng/mL Activin A (Peprotech) or 2 ng/mL TGF-β1 (Cell Signaling) for 1 hour. Cells were washed in PBS and lysed on ice for 30 minutes in lysis buffer (20 mM Tris-HCl pH 7.5, 150 mM NaCl, 1% Triton X-100, 25 mM NaF, 25 mM Na β-glycerophosphate, 2 mM Na3VO4) containing protease inhibitors (Roche). Protein concentration in the clarified lysate was determined by Bradford Assay (Pierce) and 15 µg run on 4–12% Bis-Tris gel (Biorad). The protein was transferred onto nitrocellulose membrane (GE Healthcare) and probed with the relevant antibody at 4°C overnight (Cell Signaling: anti-Smad 1 (#9743), anti-P-Smad 1/5/8 (#9511), anti-Smad 2 (#5339), anti-P-Smad 2 (#3101). After subsequent incubation with HRP-conjugated anti-rabbit antibody, protein bands were detected using ECL (Pierce) and an LAS4000 image reader. Cells were purchased originally from the European Collection of Cell Cultures (ECACC) available through Sigma.

[3] = test system: BMP4 response (BRE-luciferase) in C2C12 cells; test: BRE-luciferase reporter assay; type: cell-based
Experimental: C2C12 cells were co-transfected using lipofectamine 2000 with BRE-luciferase and Renilla Luciferase pRLTK (Promega) following the manufacturer’s instructions. 16 hours post transfection cells were starved in DMEM containing 1% FCS for 5 hours. Inhibitors were added to triplicate wells at the indicated concentrations for 30 minutes, followed by overnight stimulation with 10 ng/ml BMP4 (Peprotech). Luciferase activities were determined according to the Dual-Luciferase® Reporter Assay System (Promega) using Renilla for normalization of transfection efficiency.

[4] = test system: TGF-β-induced phosphorylation of Smad2 in C2C12 cells; test: TGF-β-induced phosphorylation of Smad2, Western blot; type: cell-based; details: qualitative
Experimental: as §4

[5] = test system: Activin A-induced P-Smad2 in HEK293 cells; test: Activin A-induced P-Smad2, Western blot; type: cell-based; details: for inhibition of Smad2 phosphorylation: 0.5 µM, Activin A; for inhibition of Activin A-induced P-Smad2: qualitative
Experimental: as §4

[6] = test system: panel of 200 human kinases; test: Kinome-wide selectivity, number of kinases inhibited; type: biochemical; details: 1 µM inhibitor; 200 kinases
Experimental: as §2, §3

ActRIIA (ACVR2), sequence (P27037 20-513): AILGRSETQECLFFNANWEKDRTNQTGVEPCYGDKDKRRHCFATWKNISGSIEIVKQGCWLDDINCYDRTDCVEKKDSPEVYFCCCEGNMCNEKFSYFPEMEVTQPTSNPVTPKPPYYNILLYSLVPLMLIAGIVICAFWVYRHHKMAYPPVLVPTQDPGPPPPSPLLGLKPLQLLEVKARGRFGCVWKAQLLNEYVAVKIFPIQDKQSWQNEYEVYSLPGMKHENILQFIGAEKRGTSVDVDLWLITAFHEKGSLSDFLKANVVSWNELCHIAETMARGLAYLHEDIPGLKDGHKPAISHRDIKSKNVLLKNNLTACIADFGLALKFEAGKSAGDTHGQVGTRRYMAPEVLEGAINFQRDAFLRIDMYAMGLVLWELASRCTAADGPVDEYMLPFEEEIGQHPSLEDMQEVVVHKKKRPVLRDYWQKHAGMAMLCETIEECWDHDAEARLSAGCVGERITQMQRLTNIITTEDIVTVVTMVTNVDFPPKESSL
T2 sequence (O94806 whole entry): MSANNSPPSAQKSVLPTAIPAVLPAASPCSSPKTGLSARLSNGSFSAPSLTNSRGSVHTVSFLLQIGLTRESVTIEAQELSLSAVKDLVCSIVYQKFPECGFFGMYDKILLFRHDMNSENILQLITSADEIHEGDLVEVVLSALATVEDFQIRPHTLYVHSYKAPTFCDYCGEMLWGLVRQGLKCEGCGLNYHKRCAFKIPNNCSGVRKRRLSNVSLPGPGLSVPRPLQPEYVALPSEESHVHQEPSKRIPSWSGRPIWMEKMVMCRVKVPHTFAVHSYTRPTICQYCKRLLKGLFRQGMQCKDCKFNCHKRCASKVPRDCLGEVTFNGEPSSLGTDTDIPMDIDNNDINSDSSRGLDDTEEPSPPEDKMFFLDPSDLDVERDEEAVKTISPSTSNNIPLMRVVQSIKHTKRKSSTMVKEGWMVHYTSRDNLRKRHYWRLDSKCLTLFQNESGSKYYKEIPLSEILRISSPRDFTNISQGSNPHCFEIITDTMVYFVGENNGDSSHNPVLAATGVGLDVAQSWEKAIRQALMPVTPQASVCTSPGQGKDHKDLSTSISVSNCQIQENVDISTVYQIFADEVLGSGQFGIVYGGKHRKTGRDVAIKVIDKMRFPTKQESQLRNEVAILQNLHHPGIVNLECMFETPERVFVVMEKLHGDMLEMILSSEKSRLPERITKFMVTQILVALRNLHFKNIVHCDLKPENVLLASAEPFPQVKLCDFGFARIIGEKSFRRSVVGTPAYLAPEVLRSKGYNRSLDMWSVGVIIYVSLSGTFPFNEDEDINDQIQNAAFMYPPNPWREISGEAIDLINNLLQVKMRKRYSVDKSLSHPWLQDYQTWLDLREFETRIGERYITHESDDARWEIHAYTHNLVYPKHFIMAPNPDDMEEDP
T4 sequence (P36894 24-532): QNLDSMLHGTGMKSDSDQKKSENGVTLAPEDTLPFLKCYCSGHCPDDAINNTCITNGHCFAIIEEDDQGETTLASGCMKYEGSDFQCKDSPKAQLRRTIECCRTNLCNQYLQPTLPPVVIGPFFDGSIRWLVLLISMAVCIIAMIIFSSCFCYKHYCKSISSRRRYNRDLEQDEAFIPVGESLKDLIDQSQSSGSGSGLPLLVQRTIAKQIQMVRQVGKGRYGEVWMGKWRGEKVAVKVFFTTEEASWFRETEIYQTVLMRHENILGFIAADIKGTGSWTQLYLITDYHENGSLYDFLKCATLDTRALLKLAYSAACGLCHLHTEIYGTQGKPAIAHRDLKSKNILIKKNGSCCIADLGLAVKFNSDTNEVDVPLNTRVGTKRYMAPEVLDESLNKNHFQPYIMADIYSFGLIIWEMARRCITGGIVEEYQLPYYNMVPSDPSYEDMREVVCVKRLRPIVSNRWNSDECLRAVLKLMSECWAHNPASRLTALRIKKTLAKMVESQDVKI
T1 sequence (P49674 whole entry): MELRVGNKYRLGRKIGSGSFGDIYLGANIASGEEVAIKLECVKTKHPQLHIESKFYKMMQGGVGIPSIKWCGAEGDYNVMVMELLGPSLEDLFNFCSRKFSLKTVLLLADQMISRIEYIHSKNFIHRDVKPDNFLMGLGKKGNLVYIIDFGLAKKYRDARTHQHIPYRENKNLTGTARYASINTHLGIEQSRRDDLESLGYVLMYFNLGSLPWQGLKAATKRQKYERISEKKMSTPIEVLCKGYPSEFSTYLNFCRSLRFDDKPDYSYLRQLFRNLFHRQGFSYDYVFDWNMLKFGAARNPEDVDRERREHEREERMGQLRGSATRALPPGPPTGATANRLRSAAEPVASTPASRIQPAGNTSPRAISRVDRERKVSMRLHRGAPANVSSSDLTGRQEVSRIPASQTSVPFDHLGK
T3 sequence (Q15759 whole entry): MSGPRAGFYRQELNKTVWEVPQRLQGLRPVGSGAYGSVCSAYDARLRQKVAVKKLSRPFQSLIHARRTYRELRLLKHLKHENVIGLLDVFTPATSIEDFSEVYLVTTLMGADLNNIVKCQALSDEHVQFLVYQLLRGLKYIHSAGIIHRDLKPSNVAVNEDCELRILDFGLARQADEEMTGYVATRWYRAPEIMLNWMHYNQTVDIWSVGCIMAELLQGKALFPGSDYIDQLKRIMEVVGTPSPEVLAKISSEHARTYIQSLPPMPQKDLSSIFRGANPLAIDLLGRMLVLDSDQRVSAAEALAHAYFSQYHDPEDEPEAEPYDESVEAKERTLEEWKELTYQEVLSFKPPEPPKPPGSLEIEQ

| Compound | ΔTm at 10 µM (CK1ε) [°C] | ΔTm at 10 µM (PKD3) [°C] | ΔTm at 10 µM (p38β) [°C] | ISV formation phenotype ([1]; 10 µM) | pIC50 (KDR) | ΔTm at 10 µM (ALK3) [°C] | Percentage inhibition (SIK; 1 µM inhibitor) [%] | pIC50 (ActRIIA (ACVR2)) | effect on TGF-β-induced phosphorylation of Smad2 [4] | inhibition of Smad2 phosphorylation [5] | inhibition of Activin A-induced P-Smad2 [5] | also measured |
| --- | --- | --- | --- | --- | --- | --- | --- | --- | --- | --- | --- | --- |
| c1cc(-c2cnn3cc(-c4ccc(OCCN5CCCCC5)cc4)cnc23)ccn1 [Dorsomorphin] | 5.9 | 0.9 | 1.1 | defects in intersomitic vessel (ISV) formation | 7.60 |  |  |  |  |  |  |  |
| COc1cc(-c2cc(-c3cccc(O)c3)cnc2N)cc(OC)c1OC [K02288, 3-[6-amino-5-(3,4,5-trimethoxy-phenyl)-pyridin-3-yl]-phenol] | 4.5 | 1.2 | 0.5 | no phenotype |  | 12.8 | 57 | 6.66 | no effect | near complete inhibition | weakly inhibited | Percentage inhibition (SIK; 0.1 µM inhibitor): 9.4%; activity weaker than control compound LDN-193189 ([2]; C2C12 cells, BMP4, P-Smad1/5/8): 10 fold; pIC50 ([2]; C2C12 cells, BMP4 stimulation, read-out: apparent IC50, Smad1/5/8 phosphorylation): 7.00; activity weaker than control compound LDN-193189 ([3]; C2C12 cells, BMP4, BRE-luciferase): 10 fold; ISV formation phenotype ([1]; 10–20 µM): no ISV defects; further kinases with >50% inhibition (beyond ABL and ARG) [6]: 6 kinases |
| c1ccc2c(-c3cnn4cc(-c5ccc(N6CCNCC6)cc5)cnc34)ccnc2c1 [LDN-193189] |  |  |  | defects in intersomitic vessel (ISV) formation; also recorded: weak ISV defects | 6.67 | 14 | 96 | 6.68 | no effect | near complete inhibition | weakly inhibited | Percentage inhibition (SIK; 0.1 µM inhibitor, 0.1 µM): 63% and > 50%; pIC50 ([2]; C2C12, read-out: apparent IC50, Smad1/5/8 phosphorylation): 8.00; pIC50 ([3]; Mus musculus, C2C12, read-out: IC50, BRE-luciferase): 8.00; number of kinases with >50% inhibition [6]: 21 kinases |

Reference: publication PMC3639963, “A New Class of Small Molecule Inhibitor of BMP Signaling” (PLoS ONE, 2013)
